Assay results: patent publication US20250326771A1, “PIPERAZINE DERIVATIVES USEFUL IN HIV THERAPY” (VIIV HEALTHCARE COMPANY, priority 2022, published 2025)

What was measured:
cIAP1-BIR2 = cIAP1-BIR2 (Homo sapiens (Human), UniProt Q13490); assay: BIR binding assay (FRET competition), cIAP1 BIR2
Summary of the method: (§1)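 615/665 nm FRET ratio. Compound, His-domain and 200 nM AF647-SMAC peptide incubated 60 min, then 2 nM Eu-W1024 for 30 min. Domains: cIAP1-BIR3 50 nM; XIAP-BIR3 100 nM; cIAP1-BIR2, cIAP2-BIR2 325 nM each. 15-pt 3-fold series; variable-slope IC50.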

cIAP2-BIR2 = cIAP2-BIR2 (Homo sapiens (Human), UniProt Q13489); assay: BIR binding assay (FRET competition), cIAP2 BIR2
Summary of the method: as §1

cIAP1-BIR3 = cIAP1-BIR3 (Homo sapiens (Human), UniProt Q13490); assay: BIR binding assay (FRET competition), cIAP1 BIR3; conditions: for cIAP1 BIR3 vs BIR2 separation window: fold separation (FS) for cIAP1
Summary of the method: as §1

XIAP-BIR3 = XIAP-BIR3 (Homo sapiens (Human), UniProt P98170); assay: BIR binding assay (FRET competition), XIAP BIR3
Summary of the method: as §1

cIAP2-BIR3 = cIAP2-BIR3 (Homo sapiens (Human), UniProt Q13489); assay: BIR binding assay (FRET competition), cIAP2 BIR3; conditions: for cIAP2 BIR3 vs BIR2 separation window: fold separation (FS) for cIAP2
[1] = system: Jurkat HIV-luciferase clones; assay: Jurkat latency reversal assay; type: cell-based; conditions: Homo sapiens, 48 h; Jurkat latency reversal assay potency; read-out: Jurkat pEC50 (converted)
Summary of the method: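 Pooled Jurkat clones C16, 115 and N6, each carrying one or two integrated HIV-luciferase proviruses and kept in 500 nM EFV, were exposed to 3-fold, 14-point compound titrations in duplicate (10 μM top, 0.5% DMSO) for 48 h at 37° C. Luciferase luminescence was fitted by four-parameter logistic regression for EC50 and maximal percent activation versus vehicle.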

cIAP1-BIR2, sequence (Q13490 173-257): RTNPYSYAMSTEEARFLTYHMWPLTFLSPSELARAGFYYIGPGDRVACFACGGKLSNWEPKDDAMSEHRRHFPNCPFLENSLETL
cIAP2-BIR3, sequence (Q13489 238-349): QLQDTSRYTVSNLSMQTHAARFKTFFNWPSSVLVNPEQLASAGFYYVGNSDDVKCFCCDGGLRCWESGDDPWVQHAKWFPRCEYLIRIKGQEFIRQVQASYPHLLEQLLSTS
cIAP1-BIR3, sequence (Q13490 253-363): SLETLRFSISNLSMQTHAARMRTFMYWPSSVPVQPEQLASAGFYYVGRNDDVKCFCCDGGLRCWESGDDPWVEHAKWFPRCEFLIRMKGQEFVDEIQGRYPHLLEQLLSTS
XIAP-BIR3, sequence (P98170 241-356): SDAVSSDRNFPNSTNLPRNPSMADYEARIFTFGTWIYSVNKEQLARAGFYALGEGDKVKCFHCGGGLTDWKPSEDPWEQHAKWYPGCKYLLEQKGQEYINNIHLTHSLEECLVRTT
cIAP2-BIR2, sequence (Q13489 158-242): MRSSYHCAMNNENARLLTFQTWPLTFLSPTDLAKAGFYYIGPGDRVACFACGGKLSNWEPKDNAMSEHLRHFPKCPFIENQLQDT

Q: What does the source list for `C[C@@H]1CN(CC(=O)N2CC(C)(C)c3[nH]c(=O)c(Cc4ccc(F)cc4)cc32)[C@@H](CN2CCN(CCCCCCCCCCCCN3CCN(C[C@H]4CN[C@H](C)CN4CC(=O)N4CC(C)(C)c5[nH]c(=O)c(Cc6ccc(F)cc6)cc54)[C@H](C)C3)C[C@H]2C)CN1` [Example 26, 1,1′-(2,2′-((3R,3′R,6R,6′R)-(((2R,2′R)-dodecane-1,12-diylbis(2-methylpiperazine-4,1-diyl))bis(methylene))bis(3-methylpiperazine-6,1-diyl))bis(acetyl))bis(6-(4-fluorobenzyl)-3,3-dimethyl-1,2,3,4-tetrahydro-5H-pyrrolo[3,2-b]pyridin-5-one)]?
A: IC50 (cIAP1-BIR2): 1000 to 3160 nM; IC50 (cIAP2-BIR2): 1000 to 3160 nM; IC50 (cIAP1-BIR3): 31.6 to 501 nM; IC50 (XIAP-BIR3): 15.8 to 31.6 nM; IC50 (cIAP2-BIR3): 7.94 to 15.8 nM; EC50 [1]: 12.6 to 63.1 nM

Q: With `Cc1cc(OC[C@@H]2CN(C[C@H]3CN[C@H](C)CN3CC(=O)N3CC(C)(C)c4[nH]c(=O)c(Cc5ccc(F)cc5)cc43)CCO2)cc(OC[C@@H]2CN(C[C@H]3CN[C@H](C)CN3CC(=O)N3CC(C)(C)c4[nH]c(=O)c(Cc5ccc(F)cc5)cc43)CCO2)c1` [Example 86, 1,1′-(2,2′-((3R,3′R,6R,6′R)-(((2S,2'S)-(((5-methyl-1,3-phenylene)bis(oxy))bis(methylene))bis(morpholine-2,4-diyl))bis(methylene))bis(3-methylpiperazine-6,1-diyl))bis(acetyl))bis(6-(4-fluorobenzyl)-3,3-dimethyl-1,2,3,4-tetrahydro-5H-pyrrolo[3,2-b]pyridin-5-one)] as the compound, how does the IC50 (cIAP1-BIR2) read?
A: 1000 to 3160 nM

Q: What about the IC50 (cIAP2-BIR2) of the same compound?
A: 1000 to 3160 nM

Q: And the IC50 (cIAP1-BIR3)?
A: 7.94 to 15.8 nM

Q: And the “cIAP1 BIR3 vs BIR2 separation window” value (cIAP1-BIR3)?
A: +++ (10,000>FS>1,000)

Q: And the IC50 (XIAP-BIR3)?
A: 15.8 to 31.6 nM

Q: What about the IC50 (cIAP2-BIR3) of the same compound?
A: 7.94 to 15.8 nM

Q: What about the “cIAP2 BIR3 vs BIR2 separation window” value (cIAP2-BIR3) of the same compound?
A: +++ (10,000>FS>1,000)

Q: What about the EC50 [1] of the same compound?
A: 0.49 to 12.6 nM

Q: With `C[C@@H]1CN(CC(=O)N2CC(C)(C)c3[nH]c(=O)c(Cc4ccc(Cl)cc4)cc32)[C@@H](CN2CCO[C@H](C(=O)NCc3ccc(CNC(=O)[C@@H]4CN(C[C@H]5CN[C@H](C)CN5CC(=O)N5CC(C)(C)c6[nH]c(=O)c(Cc7ccc(Cl)cc7)cc65)CCO4)cc3)C2)CN1` [Compound 161, (2S,2′S)-N,N′-(1,4-phenylenebis(methylene)) bis(4-(((2R,5R)-1-(2-(6-(4-chlorobenzyl)-3,3-dimethyl-5-oxo-2,3,4,5-tetrahydro-1H-pyrrolo[3,2-b]pyridin-1-yl)-2-oxoethyl)-5-methylpiperazin-2-yl)methyl)morpholine-2-carboxamide)] as the compound, how does the IC50 (cIAP1-BIR2) read?
A: 22.4 to 1000 nM

Q: And the IC50 (cIAP2-BIR2)?
A: 10000 to 51300 nM

Q: What about the IC50 (cIAP1-BIR3) of the same compound?
A: 1.38 to 7.94 nM

Q: And the “cIAP1 BIR3 vs BIR2 separation window” value (cIAP1-BIR3)?
A: +++ (10,000>FS>1,000)

Q: And the IC50 (XIAP-BIR3)?
A: 7.94 to 15.8 nM

Q: And the IC50 (cIAP2-BIR3)?
A: 1.38 to 7.94 nM

Q: What about the “cIAP2 BIR3 vs BIR2 separation window” value (cIAP2-BIR3) of the same compound?
A: ++++ (FS>10,000)

Q: What about the EC50 [1] of the same compound?
A: 0.49 to 12.6 nM

Q: What does the source list for `C[C@@H]1CN(CC(=O)N2CC(C)(C)c3[nH]c(=O)c(Cc4ccc(Cl)cc4Cl)cc32)[C@@H](CN2CCO[C@H](C(=O)NCc3ccc(CNC(=O)[C@@H]4CN(C[C@H]5CN[C@H](C)CN5CC(=O)N5CC(C)(C)c6[nH]c(=O)c(Cc7ccc(Cl)cc7Cl)cc65)CCO4)cc3)C2)CN1` [Compound 165, (2S,2′S)-N,N′-(1,4-phenylenebis(methylene)) bis(4-(((2R,5R)-1-(2-(6-(2,4-dichlorobenzyl)-3,3-dimethyl-5-oxo-2,3,4,5-tetrahydro-1H-pyrrolo[3,2-b]pyridin-1-yl)-2-oxoethyl)-5-methylpiperazin-2-yl)methyl)morpholine-2-carboxamide)]?
A: IC50 (cIAP1-BIR2): 1000 to 3160 nM; IC50 (cIAP2-BIR2): 3160 to 10000 nM; IC50 (cIAP1-BIR3): 7.94 to 15.8 nM; cIAP1 BIR3 vs BIR2 separation window (cIAP1-BIR3): +++ (10,000>FS>1,000); IC50 (XIAP-BIR3): 31.6 to 501 nM; IC50 (cIAP2-BIR3): 1.38 to 7.94 nM; cIAP2 BIR3 vs BIR2 separation window (cIAP2-BIR3): +++ (10,000>FS>1,000); EC50 [1]: 12.6 to 63.1 nM
